Reference: US20070117804A1, “Imidazopyrazines as protein kinase inhibitors” (Schering Corporation, priority 2005, published 2007)
pIC50: −log10 of the molar value.

How the values were obtained:
Cyclin E/CDK2 = target: T1, Cyclin E/CDK2 (Homo sapiens, UniProt P24941); assay: CDK2 assay (Cyclin E/CDK2 in vitro kinase SPA assay, biotinylated Histone H1 peptide); assay type: biochemical; details: read-out: CDK2 IC 50
T1 construct: made in house; host or cells: SF9 insect cells, baculovirus co-infection

His-CHK1 = target: T2, His-CHK1 (Homo sapiens, UniProt O14757); assay: CHK1 SPA assay (recombinant His-CHK1, biotinylated CDC25C peptide, 33P-ATP)
T2 sequence (O14757 1-265 limits assumed): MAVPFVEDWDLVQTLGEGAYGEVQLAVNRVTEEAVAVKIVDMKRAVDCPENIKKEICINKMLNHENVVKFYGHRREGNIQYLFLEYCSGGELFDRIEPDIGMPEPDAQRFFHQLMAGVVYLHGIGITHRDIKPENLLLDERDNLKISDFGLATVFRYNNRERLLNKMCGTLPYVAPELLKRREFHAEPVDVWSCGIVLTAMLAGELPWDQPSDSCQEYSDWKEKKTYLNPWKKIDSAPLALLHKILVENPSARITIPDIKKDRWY

SMILES: Cn1cc(-c2cnc3c(Nc4ccns4)nc(CCN)cn23)cn1
- pIC50 (Cyclin E/CDK2): 6.26
- pIC50 (His-CHK1): 7.77

SMILES: CCN(CC)S(=O)(=O)c1sc(Nc2nc(C3=CCCNC3)cn3c(-c4cnn(C)c4)cnc23)cc1C
- pIC50 (Cyclin E/CDK2): 5.08

SMILES: Cc1cc(Nc2nc(C3=CCCNC3)cn3c(-c4cnn(C)c4)cnc23)sc1S(=O)(=O)N1CCOCC1
- pIC50 (Cyclin E/CDK2): 5.16
